Laboratory results from patent US20090061009A1, “Composition and Method of Treatment of Bacterial Infections” (priority 2007, published 2009).
Counter-ions that a name gives are not always drawn.

Key:
[1] = tested on: glioblastoma; experiment: Glioblastoma model, survival; assay type: in vivo; conditions: day 100 after tumor inoculation, same dose and schedule
[2] = tested on: Mycobacterium tuberculosis strain H37Rv (ATCC 27294); experiment: Tuberculosis model in BALB/c mice; assay type: in vivo; conditions: for Survival rate, % D14: day 14; for Survival rate, % D28 / Bacterial count in lungs, log CFU D28: day 28; for Bacterial count in lungs, log CFU D28: 10.06 ± 0.304 at D1
[3] = tested on: MAC; conditions: 100 mg/kg IM five days a week for four weeks; cited from earlier work
[4] = tested on: E. coli ATCC 25922; experiment: Sepsis (septicemia) model in mice; assay type: in vivo
Description: Sepsis (septicemia) model: Escherichia coli O157 was chosen as a model infection being one of the most common nosocomial pathogens. Female BALB/C mice were infected by the intraperitoneal injection of 2.5×10^8 cells (LD90). Treatment started 2 hours post bacterial inoculation
E. coli ATCC 25922 was stored at −80° C. until use in this study. The bacterium was transferred onto Trypticase Soy Agar (TSA) plates and incubated for 18 h at 37° C. A suspension of the bacterium was prepared in PBS and added to sterile 5% hog mucin. An aliquot of the suspension was added to 5% hog gastric mucin to obtain the required concentration of inoculum (3.5×10^6 CFU/mL). Each mouse was inoculated with 0.5 mL of the appropriate inoculum preparation by IP injection. 2 hours later mice were treated with a single injection of the appropriate concentration of Gentamicin sulfate in dose 10 mg/kg (calculated by base).

[5] = BALB/c mice, 100 mg/kg IP 2/week, cumulative 800 mg/kg SM base
[6] = BALB/c mice, 200 mg/kg IP 5/week, cumulative 4000 mg/kg SM base

Molecule: COc1cccc2c1C(=O)c1c(O)c3c(c(O)c1C2=O)C[C@@](O)(C(=O)CO)C[C@@H]3O[C@H]1C[C@H](N)[C@H](O)[C@H](C)O1 [Doxorubicin in solution, Doxorubicin]
- survival rate [1]: 0%

Molecule: [H]/N=C(/N)N[C@H]1[C@H](O)[C@@H](O)[C@H](O[C@@H]2O[C@@H](C)[C@](O)(C=O)[C@H]2O[C@@H]2O[C@@H](CO)[C@H](O)[C@@H](O)[C@@H]2NC)[C@@H](N/C(N)=N\[H])[C@@H]1O [SM USP solution, Streptomycin sulfate]
- survival rate ([2]; 800 mg cumulative dose of SM): 58%
- Survival rate, % D14 [2, 5]: 83%
- Survival rate, % D28 [2, 5]: 58%
- Bacterial count in lungs, log CFU D28 ([2]; BALB/c mice, 100 mg/kg IP 2/week): 8.37 ± 0.367 log CFU
- Bacterial count in lungs, log CFU D56 ([2]; BALB/c mice, 200 mg/kg IP 5/week for 28 days, day 56): 8.86 ± 0.18 log CFU
- Survival rate, % D14 [2, 6]: 92%
- Survival rate, % D28 [2, 6]: 92%
- Bacterial count in lungs, log CFU D28 ([2]; BALB/c mice, 200 mg/kg IP 5/week): 7.57 ± 0.268 log CFU
- survival rate ([2]; positive control, cumulative 4000 mg SM): 92%

Molecule: [H]/N=C(/N)N[C@H]1[C@H](O)[C@@H](O)[C@H](O[C@@H]2O[C@@H](C)[C@](O)(C=O)[C@H]2O[C@@H]2O[C@@H](CO)[C@H](O)[C@@H](O)[C@@H]2NC)[C@@H](N/C(N)=N\[H])[C@@H]1O [Streptomycin]
- bacterial counts of MAC from spleen, lungs and liver [3]: significant reduction

Molecule: Gentamicin sulfate [Gentamicin sulfate solution]
- Day of death after inoculation: 2 (number of deaths) ([4]; 10 mg/kg single injection, day 2): 3
- Day of death after inoculation: 3 (number of deaths) ([4]; 10 mg/kg single injection, day 3): 1
- Day of death after inoculation: 4 (number of deaths) ([4]; 10 mg/kg single injection, day 4): 1
- Survival rates ([4]; E.Coli induced septicemia in mice, untreated 11%): 50%
- No. dead/No. treated ([4]; mice, 1.8 × 10^6 E. coli per mouse IP, single injection 10 mg/kg (as base) 2 hours later, observed six days): 5/10
